Data on 30 molecules can be found in patent publication US7582627B2, “3-aminoquinazolin-2,4-dione antibacterial agents” (Warner-Lambert Company, priority 2000, dated 2009).

Usually melting point stands for the temperature of the solid-liquid transition.

For `COc1c(N2CCC(C(=O)O)C2)c(F)cc2c(=O)n(N)c(=O)n(C3CC3)c12.O=C(O)C(F)(F)F` (stereo not drawn), the melting point was 252 °C (dec.).
As to `COc1c(N2CC3CC3(CN)C2)c(F)cc2c(=O)n(N)c(=O)n(C3CC3)c12.Cl` (stereo not drawn), the melting point was in the range of 183 to 185 °C.
`COc1c(N2CCCC(CN)C2)c(F)cc2c(=O)n(N)c(=O)n(C3CC3)c12.Cl` (stereo not drawn) showed a melting point of 201 °C.
To `COc1c(N2CC(C)C(C(C)N)C2)c(F)cc2c(=O)n(N)c(=O)n(C3CC3)c12.Cl` (stereo not drawn) belongs 204.5 °C; to `Cc1c(N2CCCC2)c(F)cc2c(=O)n(N)c(=O)n(C3CC3)c12.Cl`, 178 to 180 °C; to `CCN[C@@H](C)[C@@H]1CCN(c2c(F)cc3c(=O)n(N)c(=O)n(C4CC4)c3c2C)C1.Cl`, 210 to 215 °C.
Regarding `COc1c(N2CCC(CN)CC2)c(F)cc2c(=O)n(N)c(=O)n(C3CC3)c12.Cl`, the melting point was found to be 201 °C.
In turn, `COc1c(N2CC3CCCCC3(CN)C2)c(F)cc2c(=O)n(N)c(=O)n(C3CC3)c12.Cl` (stereo not drawn) had a melting point greater than 250 °C.
With `Cl.NCCC1CCN(c2c(F)cc3c(=O)n(N)c(=O)n(C4CC4)c3c2Cl)C1` (stereo not drawn), the melting point was 158 to 160 °C.
`CC(C)(N)[C@@H]1CCN(c2c(F)cc3c(=O)n(N)c(=O)n(C4CC4)c3c2Cl)C1.Cl` had a melting point of 117 to 120 °C.
In turn, `Cl.NCC1CCN(c2cc3c(cc2F)c(=O)n(N)c(=O)n3C2CC2)C1` (stereo not drawn) yielded a melting point of 170 to 172 °C.
To `COc1c(N2CCC(N)C2)c(F)cc2c(=O)n(N)c(=O)n(C3CC3)c12.Cl` (stereo not drawn) belongs 216 to 218 °C; to `NC1CCN(c2c(Cl)cc3c(=O)n(N)c(=O)n(C4CC4)c3c2F)C1.O=C(O)C(F)(F)F` (stereo not drawn), 135 to 137 °C; to `CCn1c(=O)n(N)c(=O)c2ccc(N3CC[C@H](N)C3)c(F)c21.Cl`, 248 to 251 °C.
The molecule `Cc1c(N2CCC(N)C2)c(F)cc2c(=O)n(N)c(=O)n(C3CC3)c12.O=C(O)C(F)(F)F` (stereo not drawn) showed a melting point of 110 to 112 °C.
With `Cc1c(N2CCC(CN)C2)c(F)cc2c(=O)n(N)c(=O)n(C3CC3)c12.O=C(O)C(F)(F)F` (stereo not drawn), the melting point was in the range of 82 to 84 °C.
`COc1c(N2CC[C@H]([C@H](C)N)C2)c(F)cc2c(=O)n(N)c(=O)n(C3CC3)c12.Cl` yielded a melting point of 221 to 223 °C.
In the case of `Cc1c(N2CC[C@H]([C@H](C)N)C2)c(F)cc2c(=O)n(N)c(=O)n(C3CC3)c12.Cl`, the melting point lay within 192 to 194 °C.
Molecule `Cl.NC1C2CN(c3nc4c(cc3F)c(=O)n(N)c(=O)n4C3CC3)CC12` (stereo not drawn) came in with a melting point of 268 to 270 °C.
Consider `CC(C)(N)[C@@H]1CCN(c2nc3c(cc2F)c(=O)n(N)c(=O)n3C2CC2)C1.Cl`, for which the melting point was greater than 260 °C.
`Cl.Cl.NCC1CCCN(c2nc3c(cc2F)c(=O)n(N)c(=O)n3C2CC2)C1` (stereo not drawn) showed a melting point of 152 to 154 °C.
Molecule `Cc1c(N2CC(C(C)N)C3(CC3)C2)c(F)cc2c(=O)n(N)c(=O)n(C3CC3)c12.Cl` (stereo not drawn) gave a melting point of 178 to 180 °C.
Turning to `COc1c(N2CCC(F)(C(C)N)C2)c(F)cc2c(=O)n(N)c(=O)n(C3CC3)c12.Cl` (stereo not drawn), the melting point was in the range of 190 to 192 °C.
The molecule `Cc1c(F)c(N2CCC(N)C2)cc2c1c(=O)n(N)c(=O)n2C1CC1.Cl` (stereo not drawn) gave a melting point of 238 to 240 °C.
The same measure for `Cc1c(N2CCCC(CCN)C2)c(F)cc2c(=O)n(N)c(=O)n(C3CC3)c12.Cl` (stereo not drawn): 200 °C.
With `Cc1c(N2CC(C)C(C(C)N)C2)c(F)cc2c(=O)n(N)c(=O)n(C3CC3)c12.Cl` (stereo not drawn), the melting point was determined as 240 °C.
The molecule `Cc1c(N2CCC(CN)(c3ccccc3)C2)c(F)cc2c(=O)n(N)c(=O)n(C3CC3)c12.Cl` (stereo not drawn) yielded a melting point of 227 to 231 °C.
To `Cc1c(N2CCCC(CN)C2)c(F)cc2c(=O)n(N)c(=O)n(C3CC3)c12.Cl` (stereo not drawn) belongs 219 to 221 °C.
Turning to `COc1c(N2CC(N)C(F)C2)c(F)cc2c(=O)n(N)c(=O)n(C3CC3)c12.Cl` (stereo not drawn), the melting point was greater than 250 °C.
In turn, `Cc1c(N2CCC(C)(CN)C2)c(F)cc2c(=O)n(N)c(=O)n(C3CC3)c12.Cl` (stereo not drawn) gave a melting point of 210 °C.
